Measured values published in paper PMC4805609, “Estrogenic Effects of Several BPA Analogs in the Developing Zebrafish Brain” (Frontiers in Neuroscience, 2016).
Like-named read-outs stand apart in the source and are kept apart here.

Assays:
cyp19a1b gene = assay: RT-qPCR of cyp19a1b transcripts in wild type 7-dpf larva brains
Experimental: (§1) For subsequent RT-qPCR and in situ hybridization analysis with wild type zebrafish, groups of 80 embryos (for each condition) were placed after 1 day post-fertilization (1-dpf) in a large glass flask containing 100 ml of embryonic medium (Mouriec et al., [2009b]). […] The embryos were held in the exposure flasks until 7-dpf larva stage. […] Embryos were maintained in the exposure dishes until 4-dpf larva stage. During the treatment period, 100% of the exposure medium was renewed every 24 h (for both wild type and transgenic zebrafish).
Tissue was sonicated (10 s, 3 times) in 250 μL Trizol Reagent (Invitrogen) and RNA extractions were carried out according to the manufacturer's protocol. Reverse transcription was carried out by incubating 2μg total RNA with 1μg of random primer oligonucleotides, 2.5ṁM dNTPs, and 50 U MMLV-RT (Promega) in the appropriate buffer for 10 min at 65°C and 60 min at 37°C. Quantitative Polymerase chain reaction (qPCR) experiments were performed in an iCycler thermocycler coupled to the MyiQ detector (Bio-Rad. Hercules, CA, USA) using iQ SYBR-Green Supermix (Bio-Rad) according to the manufacturer's protocol. The following primers were used: ef1 (fw) 5′-[…]-3′; ef1 (rev) 5′-[…]-3′; cyp19a1b (AroB; fw) 5′-[…] For each condition, the RT-PCR experiment was run in triplicates. Expression levels of ef1 mRNA were used to normalize cyp19a1b expression levels. Melting curve and PCR efficiency analyses were performed to confirm correct amplification. For quantification of PCR results, the threshold cycle (Ct) was determined for each reaction. Ct values for each gene of interest were normalized with the housekeeping gene ef1, using the ΔΔCt method. Normalized values were used to calculate the degree of induction or inhibition expressed as a “fold difference” compared to normalized control values.

zebrafish embryos/larvae = assay: Mortality, toxicity, teratogenicity and motility of exposed embryos/larvae; assay type: in vivo; details: EE2 1 nM, BPA 0.1, 1, 10 μM; until 7-days larval stage; data not shown
cyp19a1b transcripts = assay: cyp19a1b in situ hybridization on 7-dpf brain sections; assay type: in vivo, zebrafish; details: 7-dpf larvae; for distribution of cyp19a1b transcripts in the whole brain: transverse sections
Experimental: as §1
Larvae used for in situ hybridization experiments originated from the same exposition groups than RT-qPCR experiments. After exposure to the different conditions, 10 wild type 7-dpf larvae (for each treatment) were fixed overnight at 4°C in 4% paraformaldehyde, before embedding in parrafin. Serial thin transverse sections ([…]) were placed on cryofrost slides and subjected to in situ hybridization experiments. Sense and antisense digoxigenin-labeled riboprobes for the cyp19a1b gene were transcribed using the Digoxigenin RNA labeling kit in accordance with the manufacturer's instructions (Roche, Mannheim, Germany) and as previously described (Menuet et al., [2005]). The brain sections were processed for in situ hybridization using stringent conditions as previously published (D'Amico et al., [2011], [2013]). After NBT/BCIP revelation, sections were counterstained with DAPI, and mounted in a drop of vectashield (Vector Laboratories). All sections were photographed with an Olympus PROVIS AX70 microscope with a digital camera (Olympus SP71), or a Nikon multizoom AZ100 macroscope with a DS-Ri1 color camera.

zfERα [1] = target: T1, zfERα (Danio rerio, UniProt P57717); assay: competitive binding assay vs [3H]-E2 on in vitro translated zfERα; design: containing the coding regions of each zebrafish estrogen receptor cDNA; species or system zebrafish; details: for receptor-binding activity: competition with [3H]-E2, ERα, Figure 8A; for IC50: displacement of 10^−9 M [3H]-E2, ERα
T1 sequence (P57717 1-569): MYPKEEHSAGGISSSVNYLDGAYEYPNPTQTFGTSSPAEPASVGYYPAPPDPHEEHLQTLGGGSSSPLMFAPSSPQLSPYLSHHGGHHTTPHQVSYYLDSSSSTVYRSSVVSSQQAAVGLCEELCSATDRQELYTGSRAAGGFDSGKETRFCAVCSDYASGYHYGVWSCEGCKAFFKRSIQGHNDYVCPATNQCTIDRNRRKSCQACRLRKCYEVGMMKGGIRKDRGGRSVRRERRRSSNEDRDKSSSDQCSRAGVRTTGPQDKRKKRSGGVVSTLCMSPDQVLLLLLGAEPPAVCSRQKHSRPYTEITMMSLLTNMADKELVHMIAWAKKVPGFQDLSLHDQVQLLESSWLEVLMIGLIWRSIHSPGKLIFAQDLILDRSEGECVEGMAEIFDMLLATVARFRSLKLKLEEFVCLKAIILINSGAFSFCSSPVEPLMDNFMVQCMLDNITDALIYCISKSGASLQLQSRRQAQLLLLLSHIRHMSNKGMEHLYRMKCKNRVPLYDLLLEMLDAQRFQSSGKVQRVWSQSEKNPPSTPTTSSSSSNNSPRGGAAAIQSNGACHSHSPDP
Experimental: We also performed a competitive binding assay to test the binding properties of our compounds of interest with the three zfERs (Blair et al., [2000]). The three zebrafish estrogen receptor proteins were synthesized using the Topo-pcDNA3 expression vector containing the coding region of zfERα, zfERβ1, and zfERβ2 (Menuet et al., [2002]). The TNT Quick Coupled Transcription/Translation Systems kit (Promega, Madison, WI, USA) was used for synthesis of zfER proteins by adding 1 μg of each ER expression vector and according to the manufacturer's protocol. […] IC50 were calculated using GraphPad Prism, version 6.07.

cyp19a1b promoter = assay: EASZY assay: GFP fluorescence in brain of live cyp19a1b-GFP transgenic 4-dpf larvae; assay type: in vivo, zebrafish; details: 4-dpf cyp19a1b-GFP larvae, exposure 2 hpf to 4 dpf
Experimental: Quantification of fluorescence in transgenic cyp19a1b-GFP zebrafish larva brain was performed according to Brion et al. ([2012]). In this assay, estrogenic activity is detected in living 4 days-old larvae (treated or not with an estrogen mimic compound) from the observation of the reporter gene fluorescence in the radial glial cells. […] All photographs were taken using the same parameters: only the head was photographed under a X10 objective, with a 134 ms exposure time and maximal intensity. Photographs were analyzed using the Axiovision Imaging software and fluorescence quantification was performed using the ImageJ software (http://rsbweb.nih.gov/ij/). For each picture, the integrated density was measured, i.e., the sum of the gray-values of all the pixels within the region of interest. A gray-value of 290 was defined as background value. For each micrograph the fluorescence fold induction of fluorescence was calculated comparing the integrated pixel density with the average fluorescence induction obtained in the control group.

zfERα [2] = target: T1, zfERα; assay: cyp19a1b-luciferase reporter gene assay in U251-MG glial cells transfected with zfERα; assay type: cell-based, zebrafish; design: containing the coding regions of each zebrafish estrogen receptor cDNA; expressed in transfected cells; host or cells: human U251-MG glial cells (ER-negative); details: for cyp19a1b-luciferase reporter gene induction: 10–6 M, 24 h, U251-MG cells with ERα, vs DMSO
Experimental: (§2) The medium was also supplemented with 20 U/mL penicillin, 20 μg/mL streptomycin, and 50 ng/mL amphotericin B (Gibco). For transfections, cells were plated in 24-well plates at a density of 25,000 cells/ml in the same medium, except the fetal calf serum was charcoal-treated and used at a concentration of 2.5%. Cells were transfected with 25 ng/well either the vector expression containing or not the zfERα, zfERβ1, zfERβ2 coding region and cytomegalovirus [CMV]−β-Galactosidase, and 150 ng/well of the cyp19a1b-Luciferase reporter plasmid, using JetPEI as a transfection reagent (Polyplus Transfection, Illkirch, France). […] Luciferase activity was measured 24 h later (Luciferase assay system, Promega, Madison, WI, USA). β-Galactosidase activity was used to normalize transfection efficiency. Chemicals were tested in at least 3 independent experiments and each experiment was performed in triplicate.

zfERβ2 = zfERβ2 (Danio rerio, UniProt Q7ZU32); assay: cyp19a1b-luciferase reporter gene assay in U251-MG glial cells transfected with zfERβ2; assay type: cell-based, zebrafish; details: 10–9 M, 24 h, U251-MG cells with ERβ2, vs DMSO
Experimental: as §2

zfERβ1 = target: T2, zfERβ1 (Danio rerio, UniProt Q5PR29); assay: cyp19a1b-luciferase reporter gene assay in U251-MG glial cells transfected with zfERβ1; assay type: cell-based, zebrafish; details: 10–9 M, 24 h, U251-MG cells with ERβ1, vs DMSO
T2 sequence (Q5PR29 1-592): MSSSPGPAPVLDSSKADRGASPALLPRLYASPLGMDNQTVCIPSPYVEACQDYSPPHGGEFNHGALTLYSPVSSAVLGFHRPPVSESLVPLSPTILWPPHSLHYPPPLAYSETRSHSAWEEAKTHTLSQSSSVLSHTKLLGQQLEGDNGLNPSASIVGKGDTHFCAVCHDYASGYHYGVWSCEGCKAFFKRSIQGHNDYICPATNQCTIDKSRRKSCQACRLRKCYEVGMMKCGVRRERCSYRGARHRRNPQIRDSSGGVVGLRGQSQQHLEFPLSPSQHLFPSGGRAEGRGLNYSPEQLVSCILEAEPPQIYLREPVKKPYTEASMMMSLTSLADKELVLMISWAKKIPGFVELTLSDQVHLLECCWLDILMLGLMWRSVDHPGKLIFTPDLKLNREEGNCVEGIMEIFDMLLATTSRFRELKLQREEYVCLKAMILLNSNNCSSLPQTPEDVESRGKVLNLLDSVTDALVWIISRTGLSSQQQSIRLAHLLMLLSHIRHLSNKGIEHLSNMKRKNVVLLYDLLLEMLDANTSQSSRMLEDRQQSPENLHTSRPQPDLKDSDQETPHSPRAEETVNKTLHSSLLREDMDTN
Source text: The zfER-α, zfER-β1, and zfER-β2 expression vectors correspond to Topo-pcDNA3 expression vector (Invitrogen, San Diego, CA, USA), containing the coding regions of each zebrafish estrogen receptor cDNA as previously described (Menuet et al., [2002]). The cyp19a1b-Luciferase plasmid consists of 500 bp of the proximal promoter region of zebrafish cyp19a1b gene, containing an ERE, coupled to the luciferase reporter gene (Menuet et al., [2002]).
as §2, with “Human U251-MG glial cells were maintained in phenol red-free Dulbecco's Modified Eagle's Medium (DMEM; Life Technologies, Saint Aubin, France) supplemented with 10% fetal calf serum (Biowest, Nuaillé, France), 4 mM L-Glutamine (Gibco, Carlsbad, CA, USA) and 1 mM Na-Pyruvate (Life Technologies, Saint Aubin, France) and kept at 37°C and 5% CO2 atmosphere (Le Page et al., [2006]). The” for “The”

zfERβ2, sequence (Q7ZU32 1-553): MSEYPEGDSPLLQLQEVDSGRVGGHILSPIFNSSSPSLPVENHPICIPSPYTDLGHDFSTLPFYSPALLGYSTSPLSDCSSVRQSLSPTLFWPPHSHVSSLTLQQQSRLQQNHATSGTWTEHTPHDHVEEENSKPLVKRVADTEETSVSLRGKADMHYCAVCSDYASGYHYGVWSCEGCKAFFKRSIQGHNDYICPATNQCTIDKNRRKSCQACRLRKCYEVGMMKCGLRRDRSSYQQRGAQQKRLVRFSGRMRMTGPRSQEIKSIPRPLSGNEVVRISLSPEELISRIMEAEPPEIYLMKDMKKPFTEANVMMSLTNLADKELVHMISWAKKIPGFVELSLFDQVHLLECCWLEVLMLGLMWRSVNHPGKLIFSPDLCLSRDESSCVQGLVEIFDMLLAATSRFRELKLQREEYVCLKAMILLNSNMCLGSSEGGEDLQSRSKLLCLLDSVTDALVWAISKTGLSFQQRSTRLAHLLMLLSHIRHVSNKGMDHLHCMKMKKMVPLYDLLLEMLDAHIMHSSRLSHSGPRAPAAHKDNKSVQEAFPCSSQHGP

Compound `CC(C)(c1ccc(O)cc1)c1ccc(O)cc1` [BPA, 2,2-bis(4-hydroxyphenyl)propane, reference compound] has a fold induction at 0.1 µM (cyp19a1b gene; Danio rerio, read-out: cyp19a1b gene expression, fold induction relative to DMSO, 0.1 μM, 7-dpf larvae brains, Figure 1A) of 9, a fold induction at 1 µM (cyp19a1b gene; Danio rerio, read-out: cyp19a1b gene expression, fold induction relative to DMSO, 1 μM, 7-dpf larvae brains, Figure 1A) of about 20 and a fold induction at 1 µM (cyp19a1b gene; Danio rerio, read-out: cyp19a1b gene expression, fold induction relative to DMSO, 1 μM, 7-dpf larvae brains, six independent exposures, Figure 1B) of about 36. For the same compound, the fold induction at 10 µM (cyp19a1b gene; Danio rerio, read-out: cyp19a1b gene expression, fold induction relative to DMSO, 10 μM, 7-dpf larvae brains, Figure 1A) was 12, the “toxic or teratogenic effect” value (zebrafish embryos/larvae) was “did not caused notable toxicological effects” and the “cyp19a1b transcripts in the nucleus recessus posterioris (nrp), caudal hypothalamus” value (cyp19a1b transcripts; 1 μM) was “strong levels of cyp19a1b transcripts”. For the same compound, the “distribution of cyp19a1b transcripts in the whole brain” value (“distribution of cyp19a1b transcripts” below) (cyp19a1b transcripts; 1 μM) was “strong presence of cyp19a1b transcripts in virtually identical regions than EE2-treated larvae”, the receptor-binding activity (zfERα [1]) was “bind in vitro to ERα receptor” and the IC50 (zfERα [1]) was 2.8 µM. The fold induction at 1 µM (cyp19a1b promoter; Danio rerio, read-out: GFP fluorescence, fold induction above DMSO control) was 16 and the “cyp19a1b-luciferase reporter gene induction” value (zfERα [2]) was “significant stimulation”.

In the case of `Oc1ccc(Cc2ccc(O)cc2)cc1` [BPF, 4,4′-dihydroxydiphenyl methane], the “cyp19a1b gene expression, fold induction relative to DMSO” value (cyp19a1b gene; 1 μM, 7-dpf larvae brains, six independent exposures, Figure 1B) is reported as 20 fold, the “distribution of cyp19a1b transcripts” value (cyp19a1b transcripts; 1 μM) is reported as “identical to EE2- and BPA-treated animals” and the receptor-binding activity (zfERα [1]) is reported as “bind in vitro to ERα receptor”. For the same compound, the IC50 (zfERα [1]) was 10.6 µM, the “GFP fluorescence, fold induction above DMSO control” value (cyp19a1b promoter; 1 μM) was 13 fold and the “cyp19a1b-luciferase reporter gene induction” value (zfERα [2]) was “increased luciferase activity in ERα cells, but the stimulation did not reach statistical significance”.

In the case of `C#C[C@]1(O)CC[C@H]2[C@@H]3CCc4cc(O)ccc4[C@H]3CC[C@@]21C` [EE2, 17α-ethinylestradiol, reference compound], the “cyp19a1b-luciferase reporter gene induction” value (zfERβ2) is reported as “strong induction”, the “distribution of cyp19a1b transcripts” value (cyp19a1b transcripts; EE2 1 nM) is reported as “massive over-expression of the cyp19a1b transcripts” and the “cyp19a1b-luciferase reporter gene induction” value (zfERβ1) is reported as “strong induction”.

`C[C@]12CC[C@@H]3c4ccc(O)cc4C[C@@H](CCCCCCCCC[S+]([O-])CCCC(F)(F)C(F)(F)F)[C@H]3[C@@H]1CC[C@@H]2O` (stereo partly drawn) [ICI, reference compound] was tested, and the “effect on BPA, BPF and BPAF stimulations of cyp19a1b-luciferase” value (zfERα [2]; simultaneous treatment, ERα-expressing U251-MG cells, Figure 7B) was “completely abolished”.
